{"source": "paper PMC8764084", "about": "“Pantothenate biosynthesis is critical for chronic infection by the neurotropic parasite Toxoplasma gondii” (Nature Communications, 2022)", "target": "T1, PBAL (pantoate β-alanine ligase; Pan synthetase) (Toxoplasma gondii, UniProt S8EZ77)", "T1 construct": "gene TGME49_265870; native full-length enzyme in live tachyzoites, untagged; about 88 kDa; nuclear; compared with pbal-ko", "T1 sequence (S8EZ77 entry or part of it)": "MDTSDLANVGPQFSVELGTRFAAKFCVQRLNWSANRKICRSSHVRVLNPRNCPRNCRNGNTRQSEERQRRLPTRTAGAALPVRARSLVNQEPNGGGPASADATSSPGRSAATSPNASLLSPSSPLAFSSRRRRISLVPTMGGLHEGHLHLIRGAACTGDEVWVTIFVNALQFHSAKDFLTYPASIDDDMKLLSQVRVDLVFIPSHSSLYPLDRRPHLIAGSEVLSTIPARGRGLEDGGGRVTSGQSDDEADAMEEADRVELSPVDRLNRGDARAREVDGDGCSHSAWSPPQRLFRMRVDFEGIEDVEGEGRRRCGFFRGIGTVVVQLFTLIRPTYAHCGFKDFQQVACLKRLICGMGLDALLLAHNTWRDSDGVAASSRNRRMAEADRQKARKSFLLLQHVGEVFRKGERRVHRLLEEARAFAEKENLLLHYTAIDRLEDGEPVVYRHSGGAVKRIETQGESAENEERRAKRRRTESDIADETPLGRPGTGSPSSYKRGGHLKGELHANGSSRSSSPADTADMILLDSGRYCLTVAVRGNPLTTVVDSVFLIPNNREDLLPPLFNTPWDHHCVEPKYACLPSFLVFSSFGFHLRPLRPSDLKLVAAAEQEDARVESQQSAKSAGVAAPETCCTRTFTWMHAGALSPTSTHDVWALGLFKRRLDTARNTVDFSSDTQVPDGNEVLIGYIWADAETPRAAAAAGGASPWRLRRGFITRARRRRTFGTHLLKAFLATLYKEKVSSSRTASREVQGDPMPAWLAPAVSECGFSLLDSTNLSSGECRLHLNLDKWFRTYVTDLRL", "experiment": "LC-MS isotope labelling of pantothenate in live parasites, RH versus pbal-ko", "format": "cell-based", "settings": "0.8 mM pantoate with 0.8 mM 13C3/15N-beta-alanine, medium without Pan, 40 h, intact parasites in HFF"}
{"smiles": "NCCC(=O)O", "note": "[13C3/15N-β-Ala]", "values": [{"measurement": "LC-MS isotope labelling of pantothenate in live parasites, RH versus pbal-ko", "setting": "labelled compound", "value": "led to the formation of labeled Pan in all strains except pbal-ko"}]}
{"smiles": "CC(C)(CO)[C@@H](O)C(=O)O", "note": "[pantoate]", "values": [{"measurement": "LC-MS isotope labelling of pantothenate in live parasites, RH versus pbal-ko", "value": "led to the formation of labeled Pan in all strains except pbal-ko"}]}
